According to patent US6914045B2, “Glycopeptide antibiotics” (Wyeth Holdings Corporation, priority 2001, dated 2005):
≈ marks a conversion by molar mass, not a printed value.

Columns and labels:
[1] = test system: Enterococcus sp.; experiment: in vitro antibacterial evaluation, MIC by broth dilution; assay type: cell-based; settings: broth dilution, 18 hours at 35° C.
Outline: (§1)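 Broth dilution per NCCLS standard M7-A2 in Muller-Hinton II […], with an inoculum of 5×10^5 CFU/mL and antibiotic spanning 64-0.06 μg/mL. The MIC is the lowest concentration that inhibits growth of the organism.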

[2] = test system: Escherichia coli; experiment: as above; assay type: cell-based
Outline: as §1

[3] = test system: Streptococcus sp.; experiment: as above; assay type: cell-based; settings: broth dilution, 18 hours at 35° C.
Outline: as §1

[4] = test system: Staphylococcus sp.; experiment: as above; assay type: cell-based; settings: broth dilution, 18 hours at 35° C.; for MIC Staphylococcus aureus (GC 1131): strain GC 1131
Outline: as §1

[5] = clinical pathology (serum clinical chemistry) in mice; assay type: in vivo; settings: CD-1 mice, 20 mg/kg intravenously daily for 9 days, sera day 10
Experimental: 20-day-old CD-1 mice were divided into a vehicle control group (5 mice) and a treatment group (5 mice). Samples of glycopeptide antibiotics were administered at 20 mg/kg intravenously daily for 9 days.

[6] = anatomic pathology (histopathology of heart and kidney) in mice; assay type: in vivo; settings: CD-1 mice, 20 mg/kg intravenously daily for 9 days, necropsy day 10, microscopic histopathology
Experimental: Samples of tissues from necropsied mice were formalin-fixed, paraffin-embedded, sectioned, stained with hematoxylin and eosin, and examined microscopically. Histopathologic findings were recorded. These findings were subjectively graded on a scale corresponding to slight, mild, moderate, marked and severe as compared to untreated controls.

Compound: CC(c1ccccc1)C1NC(=O)CNC(=O)C(CO)NC(=O)C(C(O)C2CNC(=N)N2C2OC(CO)C(O)C(O)C2O)NC(=O)C(C(O)C2CNC(=N)N2)NC(=O)C(Cc2ccc(OC3OC(CO)C(OC4OC5COC(c6ccc(C(=O)O)cc6)OC5C(O)C4O)C(O)C3O)cc2)NC1=O (stereo not drawn) [Example 141, Cyclo[glycyl-β-methylphenylalanyl-O-[4-O-[4,6-O-(4-carboxybenzylidene)hexopyranosyl]-hexopyranosyl]tyrosyl-3-(2-iminoimidazolidin-4-yl)seryl-3-(3-hexopyranosyl-2-iminoimidazolidin-4-yl)serylseryl]]
- MIC Enterococcus avium (GC 4558) ([1]; Enterococcus avium (GC 4558)): >64 µg/mL
- MIC Enterococcus faecalis (ATCC 29212) ([1]; Enterococcus faecalis (ATCC 29212)): >64 µg/mL
- MIC Enterococcus faecalis (GC 2242) ([1]; Enterococcus faecalis (GC 2242)): >64 µg/mL
- MIC Enterococcus faecalis (GC 2691) ([1]; Enterococcus faecalis (GC 2691)): >64 µg/mL
- MIC Enterococcus faecalis (GC 3059) ([1]; Enterococcus faecalis (GC 3059)): >64 µg/mL
- MIC Enterococcus faecalis (GC 4552) ([1]; Enterococcus faecalis (GC 4552)): >64 µg/mL
- MIC Enterococcus faecalis (GC 4553) ([1]; Enterococcus faecalis (GC 4553)): >64 µg/mL
- MIC Enterococcus faecalis (GC 4554) ([1]; Enterococcus faecalis (GC 4554)): >64 µg/mL
- MIC Enterococcus faecalis (GC 6189) ([1]; Enterococcus faecalis (GC 6189)): >64 µg/mL
- MIC Enterococcus faecium (GC 2243) ([1]; Enterococcus faecium (GC 2243)): >64 µg/mL
- MIC Enterococcus faecium (GC 4556) ([1]; Enterococcus faecium (GC 4556)): >64 µg/mL
- MIC Enterococcus faecium (GC 4557) ([1]; Enterococcus faecium (GC 4557)): 64 µg/mL (≈ 44.8 µM)
- MIC Enterococcus faecalis (ATCC 29212) ([1]; strain ATCC 29212): >64 µg/mL
- MIC Enterococcus faecalis (GC 2242) ([1]; strain GC 2242): >64 µg/mL
- MIC Enterococcus faecium (GC 2243) ([1]; strain GC 2243): >64 µg/mL
- MIC Enterococcus faecalis (GC 2691) ([1]; strain GC 2691): >64 µg/mL
- MIC Enterococcus faecalis (GC 3059) ([1]; strain GC 3059): >64 µg/mL
- MIC Enterococcus faecalis (GC 4552) ([1]; strain GC 4552): >64 µg/mL
- MIC Enterococcus faecalis (GC 4553) ([1]; strain GC 4553): >64 µg/mL
- MIC Enterococcus faecalis (GC 4554) ([1]; strain GC 4554): >64 µg/mL
- MIC Enterococcus faecium (GC 4556) ([1]; strain GC 4556): >64 µg/mL
- MIC Enterococcus faecium (GC 4557) ([1]; strain GC 4557): 64 µg/mL (≈ 44.8 µM)
- MIC Enterococcus avium (GC 4558) ([1]; strain GC 4558): >64 µg/mL
- MIC Enterococcus faecalis (GC 6189) ([1]; strain GC 6189): >64 µg/mL
- MIC Escherichia coli (ATCC 25922) ([2]; strain ATCC 25922, 18 hours at 35° C.): >64 µg/mL
- MIC Escherichia coli (GC 4559) ([2]; strain GC 4559, 18 hours at 35° C.): >64 µg/mL
- MIC Escherichia coli (GC 4560) ([2]; strain GC 4560, 18 hours at 35° C.): >64 µg/mL
- MIC Streptococcus agalactiae (GC 4564) ([3]; Streptococcus agalactiae (GC 4564)): >64 µg/mL
- MIC Streptococcus pneumoniae (ATCC 6301) ([3]; Streptococcus pneumoniae (ATCC 6301)): >64 µg/mL
- MIC Streptococcus pneumoniae (GC 1894) ([3]; Streptococcus pneumoniae (GC 1894)): >64 µg/mL
- MIC Streptococcus pneumoniae (GC 4565) ([3]; Streptococcus pneumoniae (GC 4565)): >64 µg/mL
- MIC Streptococcus pyogenes (GC 4563) ([3]; Streptococcus pyogenes (GC 4563)): >64 µg/mL
- MIC Streptococcus pneumoniae (ATCC 6301) ([3]; strain ATCC 6301): >64 µg/mL
- MIC Streptococcus pneumoniae (GC 1894) ([3]; strain GC 1894): >64 µg/mL
- MIC Streptococcus pyogenes (GC 4563) ([3]; strain GC 4563): >64 µg/mL
- MIC Streptococcus agalactiae (GC 4564) ([3]; strain GC 4564): >64 µg/mL
- MIC Streptococcus pneumoniae (GC 4565) ([3]; strain GC 4565): >64 µg/mL
- MIC Staphylococcus aureus (GC 1131) ([4]; inoculum 5×10^5 CFU/mL): >64 µg/mL
- MIC Staphylococcus aureus (ATCC 29213) ([4]; strain ATCC 29213): >64 µg/mL
- MIC Staphylococcus aureus (GC 1131) [4]: >64 µg/mL
- MIC Staphylococcus aureus (GC 3051) ([4]; strain GC 3051): >64 µg/mL
- MIC Staphylococcus aureus (GC 3053) ([4]; strain GC 3053): >64 µg/mL
- MIC Staphylococcus aureus (GC 4541) ([4]; strain GC 4541): >64 µg/mL
- MIC Staphylococcus aureus (GC 4542) ([4]; strain GC 4542): >64 µg/mL
- MIC Staphylococcus aureus-SMITH (GC 4543) ([4]; strain GC 4543): >64 µg/mL
- MIC Staphylococcus aureus (GC 4544) ([4]; strain GC 4544): >64 µg/mL
- MIC Staphylococcus aureus (GC 4545) ([4]; strain GC 4545): >64 µg/mL
- MIC Staphylococcus haemolyticus (GC 4546) ([4]; strain GC 4546): >64 µg/mL
- MIC Coagulase Negative Staphylococcus (GC 4547) ([4]; strain GC 4547): >64 µg/mL
- MIC Coagulase Negative Staphylococcus (GC 4548) ([4]; strain GC 4548): >64 µg/mL
- MIC Coagulase Negative Staphylococcus (GC 4549) ([4]; strain GC 4549): >64 µg/mL
- MIC Coagulase Negative Staphylococcus (GC 4551) ([4]; strain GC 4551): >64 µg/mL
- MIC Coagulase Negative Staphylococcus (GC 6257) ([4]; strain GC 6257): >64 µg/mL
- MIC Staphylococcus aureus-SMITH (GC 4543) ([4]; strain SMITH GC 4543): >64 µg/mL
- Clinical Chemistry (Day 10) % of Control, BUN [5]: +308%
- Clinical Chemistry (Day 10) % of Control, Creatinine [5]: +113%
- Anatomical Pathology (Day 10), Heart [6]: 0
- Anatomical Pathology (Day 10), Kidney [6]: +++
